According to patent US20240025906A1 (NEURON23, INC., priority 2022, published 2024):

What was measured:
[1] = molecular target: T1, TYK2 JH2 (Homo sapiens, UniProt P29597); experiment: TYK2 JH2 binding assay (KINOMEscan KdELECT competitive binding); details: TYK2 JH2 domain, KINOMEscan KdELECT (Assay A); read-out: Biochemical TYK2_JH2_Kd
T1 construct: purchased DiscoverX (KINOMEscan KdELECT service); host or cells: E. coli BL21-derived (T7 phage display) or HEK-293
How it was run: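 Competition binding, KdELECT format. Kinase (phage-tagged, E. coli BL21-derived host; or HEK-293, DNA-tagged) + ligand-coated streptavidin beads + cpd, 1 h RT, final DMSO 0.9%. Wash, elute 30 min with 0.5 μM non-biotinylated ligand; qPCR readout. Kd: 11-pt, 3-fold series.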

[2] = system: JAK1/TYK2 pSTAT5 (Tyr694/699) in THP-1 cell line; experiment: IFNa-stimulated JAK1/TYK2 pSTAT5 (Tyr694/699) inhibition cellular assay, AlphaLISA; type: cell-based; details: Homo sapiens; THP-1 cells, IFNa-stimulated, AlphaLISA (Assay B); read-out: Cellular THP1_IFNa-pSTATS_IC50
How it was run: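 pSTAT5 (Tyr694/699) in lysates quantified by AlphaLISA (615 nm) after 30 min IFNa stimulation (100 ng/mL stock) of THP-1 cells. The cells, 2e4 per well in HBSS, had first been exposed 1 h at 37° C. to eight 6-fold compound dilutions, 10000 down to 0.04 nM final. IC50 fitted by 4PL regression, bottom 0, Hill slope −1.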

T1 sequence (P29597 589-875 limits assumed): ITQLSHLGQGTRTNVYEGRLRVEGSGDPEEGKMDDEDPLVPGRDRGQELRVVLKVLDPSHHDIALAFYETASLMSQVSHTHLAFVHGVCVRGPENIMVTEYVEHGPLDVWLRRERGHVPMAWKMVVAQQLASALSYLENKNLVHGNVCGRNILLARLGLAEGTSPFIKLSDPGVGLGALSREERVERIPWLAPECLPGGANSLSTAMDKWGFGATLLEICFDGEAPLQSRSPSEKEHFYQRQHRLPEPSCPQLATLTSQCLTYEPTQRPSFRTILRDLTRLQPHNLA

| Kd [1] [nM] | IC50 [2] [nM] | Structure (SMILES) |
| --- | --- | --- |
| ≤ 100 | > 500 | CNc1ncc(-c2cc(C)n[nH]2)c2cc(NC(=O)C3CC3)ncc12 [Example 23, N-(5-(3-methyl-1H-pyrazol-5-yl)-8-(methylamino)-2,7-naphthyridin-3-yl)cyclopropanecarboxamide] |
| ≤ 100 | > 500 | CNc1ncc(-c2cn[nH]c2)c2cc(NC(=O)C3CC3)ncc12 [Example 24, N-(8-(methylamino)-5-(1H-pyrazol-4-yl)-2,7-naphthyridin-3-yl)cyclopropanecarboxamide] |
| ≤ 100 | > 500 | CNc1ncc(-c2cnn(C)c2)c2cc(NC(=O)C3CC3)ncc12 [Example 25, N-(5-(1-methyl-1H-pyrazol-4-yl)-8-(methylamino)-2,7-naphthyridin-3-yl)cyclopropanecarboxamide] |
| ≤ 100 | > 500 | CNc1ncc(-c2ncsc2C)c2cc(NC(=O)C3CC3)ncc12 [Example 26, N-(8-(methylamino)-5-(5-methylthiazol-4-yl)-2,7-naphthyridin-3-yl)cyclopropanecarboxamide] |
| ≤ 100 | > 500 | CNc1ncc(C)c2cc(NC(=O)C3CC3)ncc12 [Example 27, N-(5-methyl-8-(methylamino)-2,7-naphthyridin-3-yl)cyclopropanecarboxamide] |
| ≤ 100 | > 500 | CNc1ncc(C2CC2)c2cc(NC(=O)C3CC3)ncc12 [Example 28, N-(5-cyclopropyl-8-(methylamino)-2,7-naphthyridin-3-yl)cyclopropanecarboxamide] |
| ≤ 100 | > 500 | CNc1ncc(-c2cccc(S(C)(=O)=O)c2)c2cc(NC(=O)C3CC3)ncc12 [Example 29, N-(8-(methylamino)-5-(3-(methylsulfonyl)phenyl)-2,7-naphthyridin-3-yl)cyclopropanecarboxamide] |
| ≤ 100 | > 500 | CNc1ncc(-c2ocnc2C)c2cc(NC(=O)C3CC3)ncc12 [Example 30, N-(8-(methylamino)-5-(4-methyloxazol-5-yl)-2,7-naphthyridin-3-yl)cyclopropanecarboxamide] |
| ≤ 100 | > 500 | CNc1ncc(CCc2ccccc2)c2cc(NC(=O)C3CC3)ncc12 [Example 31, N-(8-(methylamino)-5-phenethyl-2,7-naphthyridin-3-yl)cyclopropanecarboxamide] |
| ≤ 100 | ≤ 500 | CNc1ncc(-c2nc(C)co2)c2cc(NC(=O)C3CC3)ncc12 [Example 32, N-(8-(methylamino)-5-(4-methyloxazol-2-yl)-2,7-naphthyridin-3-yl)cyclopropanecarboxamide] |
| ≤ 100 | ≤ 500 | CNc1ncc(/C=C/c2ccccc2)c2cc(NC(=O)C3CC3)ncc12 [Example 33, (E)-N-(8-(methylamino)-5-styryl-2,7-naphthyridin-3-yl)cyclopropanecarboxamide] |
| 100 to 1000 | > 500 | CNc1ncc(Cc2ccc(OC)cc2)c2cc(NC(=O)C3CC3)ncc12 [Example 34, N-(5-(4-methoxybenzyl)-8-(methylamino)-2,7-naphthyridin-3-yl)cyclopropanecarboxamide] |
| ≤ 100 | > 500 | CNc1ncc(-c2ccccc2C)c2cc(NC(=O)C3CC3)ncc12 [Example 35, N-(8-(methylamino)-5-(o-tolyl)-2,7-naphthyridin-3-yl)cyclopropanecarboxamide] |
| ≤ 100 | > 500 | CNc1ncc(-c2conc2C)c2cc(NC(=O)C3CC3)ncc12 [Example 36, N-(8-(methylamino)-5-(3-methylisoxazol-4-yl)-2,7-naphthyridin-3-yl)cyclopropanecarboxamide] |
| ≤ 100 | > 500 | CNc1ncc(-c2ccc(C#N)cc2)c2cc(NC(=O)C3CC3)ncc12 [Example 37, N-(5-(4-cyanophenyl)-8-(methylamino)-2,7-naphthyridin-3-yl)cyclopropanecarboxamide] |
| ≤ 100 | > 500 | CNc1ncc(-c2cnn(CC(F)(F)F)c2)c2cc(NC(=O)C3CC3)ncc12 [Example 38, N-(8-(methylamino)-5-(1-(2,2,2-trifluoroethyl)-1H-pyrazol-4-yl)-2,7-naphthyridin-3-yl)cyclopropanecarboxamide] |
| 1000 to 10000 | > 500 | CNc1ncc(-c2c(C)cnn2C2CCCCO2)c2cc(NC(=O)C3CC3)ncc12 (stereo not drawn) [Example 39, N-(5-(4-methyl-1-(tetrahydro-2H-pyran-2-yl)-1H-pyrazol-5-yl)-8-(methylamino)-2,7-naphthyridin-3-yl)cyclopropanecarboxamide] |
| ≤ 100 | > 500 | CNc1ncc(-c2[nH]ncc2C)c2cc(NC(=O)C3CC3)ncc12 [Example 40, N-(5-(4-methyl-1H-pyrazol-5-yl)-8-(methylamino)-2,7-naphthyridin-3-yl)cyclopropanecarboxamide] |
| 100 to 1000 | > 500 | CNc1ncc(-c2ccccc2C(N)=O)c2cc(NC(=O)C3CC3)ncc12 [Example 41, 2-(6-(cyclopropanecarboxamido)-1-(methylamino)-2,7-naphthyridin-4-yl)benzamide] |
| 100 to 1000 | > 500 | CNc1ncc(-c2ccccc2C#N)c2cc(NC(=O)C3CC3)ncc12 [Example 42, N-(5-(2-cyanophenyl)-8-(methylamino)-2,7-naphthyridin-3-yl)cyclopropanecarboxamide] |
| ≤ 100 | > 500 | CNc1ncc(Cc2ccccc2)c2cc(NC(=O)C3CC3)ncc12 [Example 43, N-(5-benzyl-8-(methylamino)-2,7-naphthyridin-3-yl)cyclopropanecarboxamide] |
| ≤ 100 | > 500 | CNc1ncc(CO)c2cc(NC(=O)C3CC3)ncc12 [Example 44, N-(5-(hydroxymethyl)-8-(methylamino)-2,7-naphthyridin-3-yl)cyclopropanecarboxamide] |
| ≤ 100 | > 500 | CNc1ncc(COc2ccccc2)c2cc(NC(=O)C3CC3)ncc12 [Example 45, N-(8-(methylamino)-5-(phenoxymethyl)-2,7-naphthyridin-3-yl)cyclopropanecarboxamide] |
| ≤ 100 | > 500 | CNc1ncc(-c2ccc(S(C)(=O)=O)cc2)c2cc(NC(=O)C3CC3)ncc12 [Example 46, N-(8-(methylamino)-5-(4-(methylsulfonyl)phenyl)-2,7-naphthyridin-3-yl)cyclopropanecarboxamide] |
| 100 to 1000 | > 500 | CNc1ncc(-c2ccccc2SC)c2cc(NC(=O)C3CC3)ncc12 [Example 47, N-(8-(methylamino)-5-(2-(methylthio)phenyl)-2,7-naphthyridin-3-yl)cyclopropanecarboxamide] |
| 1000 to 10000 | > 500 | CNc1ncc(-c2ccccc2S(C)(=O)=O)c2cc(NC(=O)C3CC3)ncc12 [Example 48, N-(8-(methylamino)-5-(2-(methylsulfonyl)phenyl)-2,7-naphthyridin-3-yl)cyclopropanecarboxamide] |
| ≤ 100 | > 500 | CNc1ncc(-c2cccc(-c3ncn(C)n3)c2OC)c2cc(NC(=O)C3CC3)ncc12 [Example 49, N-(5-(2-methoxy-3-(1-methyl-1H-1,2,4-triazol-3-yl)phenyl)-8-(methylamino)-2,7-naphthyridin-3-yl)cyclopropanecarboxamide] |
